Source: PubChem BioAssay (NCI)
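All cell lines were grown in 96-well plates and treated with compound for 48 hours. The concentration for 50% growth inhibition is given as GI50. TGI: total growth inhibition.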

Legend:
Assay in all cases: DTP human tumour cell line panel, 48 h
A549 NSCLC = test system: A549 NSCLC
SK-OV-3 ovarian = test system: SK-OV-3 ovarian
SF-295 CNS = test system: SF-295 CNS
HOP-62 NSCLC = test system: HOP-62 NSCLC
SK-MEL-28 melanoma = test system: SK-MEL-28 melanoma
UO-31 renal = test system: UO-31 renal
HCC-2998 colon = test system: HCC-2998 colon
COLO 205 colon = test system: COLO 205 colon
DU-145 prostate = test system: DU-145 prostate
SN12C renal = test system: SN12C renal

**Q.** For `CC(=O)OC(OC(C)=O)n1cc(C=O)c2ccccc21`, which TGI (A549 NSCLC) is on record?
**A.** > 100 µM

**Q.** What about the TGI (SK-OV-3 ovarian) of the same molecule?
**A.** > 100 µM

**Q.** And the TGI (SF-295 CNS)?
**A.** > 100 µM

**Q.** What about the TGI (HOP-62 NSCLC) of the same molecule?
**A.** > 100 µM

**Q.** What about the TGI (SK-MEL-28 melanoma) of the same molecule?
**A.** > 100 µM

**Q.** And the TGI (UO-31 renal)?
**A.** > 100 µM

**Q.** And the TGI (HCC-2998 colon)?
**A.** > 100 µM

**Q.** What about the TGI (COLO 205 colon) of the same molecule?
**A.** > 100 µM

**Q.** And the TGI (DU-145 prostate)?
**A.** > 100 µM

**Q.** And the TGI (SN12C renal)?
**A.** > 100 µM

**Q.** Which results are given for `COP(=O)(OC)C(Cc1c[nH]c2ccccc12)NC(=O)OCc1ccccc1` (stereo not given)?
**A.** TGI (A549 NSCLC): > 100 µM; TGI (SK-OV-3 ovarian): > 100 µM; TGI (SF-295 CNS): > 100 µM; TGI (HOP-62 NSCLC): > 100 µM; TGI (SK-MEL-28 melanoma): > 100 µM; TGI (UO-31 renal): > 100 µM; TGI (HCC-2998 colon): > 100 µM; TGI (COLO 205 colon): > 100 µM; TGI (DU-145 prostate): > 100 µM; TGI (SN12C renal): > 100 µM

**Q.** How did the GI50 (A549 NSCLC) turn out when `O=C(NC1CCN(Cc2ccccc2)CC1)c1cc2nc(-c3ccc(Cl)s3)cc(C(F)(F)F)n2n1` was run?
**A.** 79 µM

**Q.** And the TGI (A549 NSCLC)?
**A.** > 100 µM

**Q.** What about the GI50 (SK-OV-3 ovarian) of the same molecule?
**A.** 61.6 µM

**Q.** What about the TGI (SK-OV-3 ovarian) of the same molecule?
**A.** > 100 µM

**Q.** And the GI50 (SF-295 CNS)?
**A.** > 100 µM

**Q.** And the TGI (SF-295 CNS)?
**A.** > 100 µM

**Q.** And the GI50 (HOP-62 NSCLC)?
**A.** 27 µM

**Q.** What about the TGI (HOP-62 NSCLC) of the same molecule?
**A.** > 100 µM

**Q.** And the GI50 (UO-31 renal)?
**A.** > 100 µM

**Q.** And the TGI (UO-31 renal)?
**A.** > 100 µM

**Q.** What about the GI50 (DU-145 prostate) of the same molecule?
**A.** > 100 µM

**Q.** What about the TGI (DU-145 prostate) of the same molecule?
**A.** > 100 µM

**Q.** What about the GI50 (SN12C renal) of the same molecule?
**A.** > 100 µM

**Q.** And the TGI (SN12C renal)?
**A.** > 100 µM

**Q.** `N#C[S-].[Nd+3].c1ccc(-c2ccccn2)nc1.c1ccc(-c2ccccn2)nc1.c1ccc(-c2ccccn2)nc1` was tested. Which GI50 (A549 NSCLC) did it give?
**A.** 4.94 µM

**Q.** What about the TGI (A549 NSCLC) of the same molecule?
**A.** > 100 µM

**Q.** And the GI50 (SK-OV-3 ovarian)?
**A.** 6.93 µM

**Q.** And the TGI (SK-OV-3 ovarian)?
**A.** > 100 µM

**Q.** What about the GI50 (SF-295 CNS) of the same molecule?
**A.** 2.35 µM

**Q.** And the TGI (SF-295 CNS)?
**A.** 5.8 µM

**Q.** What about the GI50 (SK-MEL-28 melanoma) of the same molecule?
**A.** 13.7 µM

**Q.** What about the TGI (SK-MEL-28 melanoma) of the same molecule?
**A.** > 100 µM

**Q.** What about the GI50 (UO-31 renal) of the same molecule?
**A.** 2.19 µM

**Q.** What about the TGI (UO-31 renal) of the same molecule?
**A.** 5.5 µM

**Q.** What about the GI50 (HCC-2998 colon) of the same molecule?
**A.** 7.87 µM

**Q.** And the TGI (HCC-2998 colon)?
**A.** > 100 µM

**Q.** And the GI50 (COLO 205 colon)?
**A.** 18.6 µM

**Q.** What about the TGI (COLO 205 colon) of the same molecule?
**A.** > 100 µM

**Q.** And the GI50 (SN12C renal)?
**A.** 5.82 µM

**Q.** What about the TGI (SN12C renal) of the same molecule?
**A.** > 100 µM
